{"source": "patent US20030139391A1", "about": "(priority 2000, published 2003)", "test_system": "patients", "assay": "Side effects and dropout in earlier studies with shorter titration", "type": "in vivo, human", "settings": "for Abdominal Pain: % / Abdominal Pain: number / Diarrhea: % / Diarrhea: number / Dyspepsia: % / Dyspepsia: number / Gastro-intestinal System Disorders, Adverse events: % / Gastro-intestinal System Disorders, Adverse events: number / Nausea: % / Nausea: number / Vomiting: % / Vomiting: number: shorter titration", "text": "In contrast with earlier studies with a shorter titration of the drug the incidence of side effects, particularly gastro-intestinal system disorders, were […]. A example of this is shown below in Table 11.", "data": [{"smiles": "COc1ccc2c3c1O[C@H]1C[C@@H](O)C=C[C@@]31CCN(C)C2", "note": "[GAL, galantamine]", "values": [{"measurement": "Abdominal Pain: %", "setting": "18 mg", "value": 2.3, "unit": "%"}, {"measurement": "Abdominal Pain: number", "setting": "18 mg", "value": 2}, {"measurement": "Diarrhea: %", "setting": "18 mg", "value": 2.3, "unit": "%"}, {"measurement": "Diarrhea: number", "setting": "18 mg", "value": 2}, {"measurement": "Dyspepsia: %", "setting": "18 mg", "value": 5.7, "unit": "%"}, {"measurement": "Dyspepsia: number", "setting": "18 mg", "value": 5}, {"measurement": "Gastro-intestinal System Disorders, Adverse events: %", "setting": "18 mg", "value": 31.8, "unit": "%"}, {"measurement": "Gastro-intestinal System Disorders, Adverse events: number", "setting": "18 mg", "value": 28}, {"measurement": "Nausea: %", "setting": "18 mg", "value": 17.0, "unit": "%"}, {"measurement": "Nausea: number", "setting": "18 mg", "value": 15}, {"measurement": "Vomiting: %", "setting": "18 mg", "value": 17.0, "unit": "%"}, {"measurement": "Vomiting: number", "setting": "18 mg", "value": 15}, {"measurement": "Abdominal Pain: %", "setting": "24 mg", "value": 7.4, "unit": "%"}, {"measurement": "Abdominal Pain: number", "setting": "24 mg", "value": 36}, {"measurement": "Diarrhea: %", "setting": "24 mg", "value": 9.6, "unit": "%"}, {"measurement": "Diarrhea: number", "setting": "24 mg", "value": 47}, {"measurement": "Dyspepsia: %", "setting": "24 mg", "value": 4.3, "unit": "%"}, {"measurement": "Dyspepsia: number", "setting": "24 mg", "value": 21}, {"measurement": "Gastro-intestinal System Disorders, Adverse events: %", "setting": "24 mg", "value": 49.0, "unit": "%"}, {"measurement": "Gastro-intestinal System Disorders, Adverse events: number", "setting": "24 mg", "value": 239}, {"measurement": "Nausea: %", "setting": "24 mg", "value": 35.2, "unit": "%"}, {"measurement": "Nausea: number", "setting": "24 mg", "value": 172}, {"measurement": "Vomiting: %", "setting": "24 mg", "value": 19.1, "unit": "%"}, {"measurement": "Vomiting: number", "setting": "24 mg", "value": 93}, {"measurement": "Abdominal Pain: %", "setting": "32 mg", "value": 8.4, "unit": "%"}, {"measurement": "Abdominal Pain: number", "setting": "32 mg", "value": 59}, {"measurement": "Diarrhea: %", "setting": "32 mg", "value": 12.9, "unit": "%"}, {"measurement": "Diarrhea: number", "setting": "32 mg", "value": 91}, {"measurement": "Dyspepsia: %", "setting": "32 mg", "value": 4.5, "unit": "%"}, {"measurement": "Dyspepsia: number", "setting": "32 mg", "value": 32}, {"measurement": "Gastro-intestinal System Disorders, Adverse events: %", "setting": "32 mg", "value": 55.8, "unit": "%"}, {"measurement": "Gastro-intestinal System Disorders, Adverse events: number", "setting": "32 mg", "value": 393}, {"measurement": "Nausea: %", "setting": "32 mg", "value": 37.6, "unit": "%"}, {"measurement": "Nausea: number", "setting": "32 mg", "value": 265}, {"measurement": "Vomiting: %", "setting": "32 mg", "value": 18.6, "unit": "%"}, {"measurement": "Vomiting: number", "setting": "32 mg", "value": 131}, {"measurement": "dropout rate due to cholinergic side effects", "setting": "36 mg daily in three doses, two week titration", "value": 50, "unit": "%"}, {"measurement": "Abdominal Pain: %", "setting": "36 mg", "value": 1.9, "unit": "%"}, {"measurement": "Abdominal Pain: number", "setting": "36 mg", "value": 1}, {"measurement": "Diarrhea: %", "setting": "36 mg", "value": 3.7, "unit": "%"}, {"measurement": "Diarrhea: number", "setting": "36 mg", "value": 2}, {"measurement": "Dyspepsia: %", "setting": "36 mg", "value": "0 (0%)"}, {"measurement": "Dyspepsia: number", "setting": "36 mg", "value": "0 (0%)"}, {"measurement": "Gastro-intestinal System Disorders, Adverse events: %", "setting": "36 mg", "value": 50.0, "unit": "%"}, {"measurement": "Gastro-intestinal System Disorders, Adverse events: number", "setting": "36 mg", "value": 27}, {"measurement": "Nausea: %", "setting": "36 mg", "value": 37.0, "unit": "%"}, {"measurement": "Nausea: number", "setting": "36 mg", "value": 20}, {"measurement": "Vomiting: %", "setting": "36 mg", "value": 16.7, "unit": "%"}, {"measurement": "Vomiting: number", "setting": "36 mg", "value": 9}, {"measurement": "Abdominal Pain: %", "setting": "flexable dose", "value": 1.9, "unit": "%"}, {"measurement": "Abdominal Pain: number", "setting": "flexable dose", "value": 18}, {"measurement": "Diarrhea: %", "setting": "flexable dose", "value": 14.6, "unit": "%"}, {"measurement": "Diarrhea: number", "setting": "flexable dose", "value": 38}, {"measurement": "Dyspepsia: %", "setting": "flexable dose", "value": 3.4, "unit": "%"}, {"measurement": "Dyspepsia: number", "setting": "flexable dose", "value": 9}, {"measurement": "Gastro-intestinal System Disorders, Adverse events: %", "setting": "flexable dose", "value": 51.0, "unit": "%"}, {"measurement": "Gastro-intestinal System Disorders, Adverse events: number", "setting": "flexable dose", "value": 133}, {"measurement": "Nausea: %", "setting": "flexable dose", "value": 32.2, "unit": "%"}, {"measurement": "Nausea: number", "setting": "flexable dose", "value": 84}, {"measurement": "Vomiting: %", "setting": "flexable dose", "value": 14.6, "unit": "%"}, {"measurement": "Vomiting: number", "setting": "flexable dose", "value": 38}]}]}
